The source made the active and inactive calls. No cut-off for these calls is given here.

Data set [1] concerns the target Beta-secretase 1 (Homo sapiens, UniProt P56817). Put plainly: Inhibition human BACE1 expressed in baculovirus expression system using Panvera peptide as substrate measured after 60 mins by fluorescence assay. Conditions: read-out: IC50.
Data set [2] in a line: Acute toxicity in C57BL6/J mouse at 5 to 10 mg/kg, ip measured up to 24 hrs. Format: organism-based. As to conditions: in vivo, dose 5-10 mg/kg.
Data set [3] in a line: Acute toxicity in C57BL6/J mouse assessed as reduction in locomotor activity at 15 mg/kg, ip measured after 10 to 15 mins. As to conditions: in vivo, time 10-15 min. Format: organism-based.
Data set [4] can be described thus: Acute toxicity in C57BL6/J mouse assessed as piloerection at 15 mg/kg, ip measured after 10 to 15 mins. Format: organism-based. As to conditions: in vivo, time 10-15 min.
Data set [5] in a line: Acute toxicity in C57BL6/J mouse assessed as ptosis at 15 mg/kg, ip measured after 10 to 15 mins. Conditions: in vivo, time 10-15 min. Format: organism-based.
Data set [6] is described as follows: Acute toxicity in C57BL6/J mouse assessed as tremor at 15 mg/kg, ip measured after 10 to 15 mins. The data set is classed as organism-based. As to conditions: in vivo, time 10-15 min.
The nature of data set [7]: Acute toxicity in C57BL6/J mouse at 15 mg/kg, ip measured after 3 hrs. The data set is classed as organism-based. As to conditions: in vivo.
Data set [8] has as its system Mus musculus. The data set is described as follows: Improvement in memory impairment in APP/PS1 double mutant-transgenic C57BL6/J mouse model assessed as […] at 10 mg/kg/day, ip for 4 weeks followed by compound washout by maze two-object recognition test. The data set is classed as functional, organism-based.
Data set [9] concerns Mus musculus. Put plainly: Antialzheimer activity in APP/PS1 double mutant-transgenic C57BL6/J mouse model assessed as reduction in amyloid beta burden in cortex at 10 mg/kg/day, ip for 4 weeks followed by compound washout and measured after 24 hrs by hematoxylin staining based microscopic analysis. The data set is classed as functional, organism-based.
The test system of data set [10] is Mus musculus. The data set is described as follows: Antialzheimer activity in APP/PS1 double mutant-transgenic C57BL6/J mouse model assessed as reduction in soluble amyloid beta 40 level in cortex at 10 mg/kg/day, ip for 4 weeks followed by compound washout and measured after 24 hrs by ELISA. The data set is classed as functional, organism-based. On the technique in general: ELISA stands for enzyme-linked immunosorbent assay.

Data set [11] has as its system Mus musculus. Put plainly: Antialzheimer activity in APP/PS1 double mutant-transgenic C57BL6/J mouse model assessed as reduction in soluble amyloid beta 42 level in cortex at 10 mg/kg/day, ip for 4 weeks followed by compound washout and measured after 24 hrs by ELISA. Format: functional, organism-based.
For data set [12], the system named is Mus musculus. Put plainly: Antialzheimer activity in APP/PS1 double mutant-transgenic C57BL6/J mouse model assessed as increase in Adam10 gene expression at 10 mg/kg/day, ip for 4 weeks followed by compound washout and measured after 24 hrs by qPCR analysis. The data set is classed as functional, organism-based.
Data set [13] deals with Mus musculus. The data set is described as follows: Antialzheimer activity in APP/PS1 double mutant-transgenic C57BL6/J mouse model assessed as reduction in Bace1 gene expression at 10 mg/kg/day, ip for 4 weeks followed by compound washout and measured after 24 hrs by qPCR analysis. Format: functional, organism-based. Background: Quantitative PCR measures a nucleic acid by following its amplification.

The subject of data set [14] is Mus musculus. The data set is described as follows: Antialzheimer activity in APP/PS1 double mutant-transgenic C57BL6/J mouse model assessed as increase in Adam10 expression at 10 mg/kg/day, ip for 4 weeks followed by compound washout and measured after 24 hrs by Western blot analysis. Format: functional, organism-based.
The test system of data set [15] is Mus musculus. Put plainly: Antialzheimer activity in APP/PS1 double mutant-transgenic C57BL6/J mouse model assessed as reduction in Bace1 expression at 10 mg/kg/day, ip for 4 weeks followed by compound washout and measured after 24 hrs by Western blot analysis. The data set is classed as functional, organism-based. (In general: A western blot detects proteins with antibodies after separation by electrophoresis.)

Data set [16] has as its system Mus musculus. Put plainly: Antialzheimer activity in APP/PS1 double mutant-transgenic C57BL6/J mouse model assessed as reduction in oxidized protein level at 10 mg/kg/day, ip for 4 weeks followed by compound washout and measured after 24 hrs by Western blot analysis. The data set is classed as functional, organism-based.
The subject of data set [17] is Mus musculus. Put plainly: Antialzheimer activity in APP/PS1 double mutant-transgenic C57BL6/J mouse model assessed as increase in SOD2 level at 10 mg/kg/day, ip for 4 weeks followed by compound washout and measured after 24 hrs by double immunostaining assay. Format: functional, organism-based.
In data set [18] the test system is Mus musculus. Put plainly: Antialzheimer activity in APP/PS1 double mutant-transgenic C57BL6/J mouse model assessed as increase in Nrf2 level at 10 mg/kg/day, ip for 4 weeks followed by compound washout and measured after 24 hrs by Western blot analysis. The data set is classed as functional, organism-based.
For data set [19], the system named is Mus musculus. Put plainly: Antialzheimer activity in APP/PS1 double mutant-transgenic C57BL6/J mouse model assessed as increase in GPX1 level at 10 mg/kg/day, ip for 4 weeks followed by compound washout and measured after 24 hrs by Western blot analysis. Format: functional, organism-based.
In data set [20] the target is Acetylcholinesterase (Homo sapiens, UniProt P22303).
Sequence of Acetylcholinesterase (P22303 whole entry): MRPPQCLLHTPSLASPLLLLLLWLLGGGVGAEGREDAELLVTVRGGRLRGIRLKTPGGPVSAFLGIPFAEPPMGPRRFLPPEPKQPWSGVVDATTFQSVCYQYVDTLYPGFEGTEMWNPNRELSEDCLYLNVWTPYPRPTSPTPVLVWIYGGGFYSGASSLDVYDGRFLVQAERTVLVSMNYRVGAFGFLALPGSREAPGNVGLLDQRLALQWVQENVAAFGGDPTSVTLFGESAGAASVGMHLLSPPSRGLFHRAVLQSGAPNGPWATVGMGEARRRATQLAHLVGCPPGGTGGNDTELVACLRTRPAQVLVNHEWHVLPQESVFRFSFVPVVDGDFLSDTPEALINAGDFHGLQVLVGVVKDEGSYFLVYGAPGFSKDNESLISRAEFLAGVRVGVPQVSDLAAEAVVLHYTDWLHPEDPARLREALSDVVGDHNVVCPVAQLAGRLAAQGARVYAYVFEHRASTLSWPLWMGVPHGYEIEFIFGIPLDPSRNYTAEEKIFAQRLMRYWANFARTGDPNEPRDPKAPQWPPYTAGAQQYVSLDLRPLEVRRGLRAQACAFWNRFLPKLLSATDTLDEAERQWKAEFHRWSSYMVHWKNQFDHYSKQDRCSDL
Description: Inhibition of recombinant human AChE expressed in HEK293 cells using acetylthiocholine iodide as substrate preincubated for 15 mins followed by substrate addition by Ellman's method
The target in data set [21] is Cholinesterase (Homo sapiens, UniProt P06276).
Sequence of Cholinesterase (P06276 whole entry): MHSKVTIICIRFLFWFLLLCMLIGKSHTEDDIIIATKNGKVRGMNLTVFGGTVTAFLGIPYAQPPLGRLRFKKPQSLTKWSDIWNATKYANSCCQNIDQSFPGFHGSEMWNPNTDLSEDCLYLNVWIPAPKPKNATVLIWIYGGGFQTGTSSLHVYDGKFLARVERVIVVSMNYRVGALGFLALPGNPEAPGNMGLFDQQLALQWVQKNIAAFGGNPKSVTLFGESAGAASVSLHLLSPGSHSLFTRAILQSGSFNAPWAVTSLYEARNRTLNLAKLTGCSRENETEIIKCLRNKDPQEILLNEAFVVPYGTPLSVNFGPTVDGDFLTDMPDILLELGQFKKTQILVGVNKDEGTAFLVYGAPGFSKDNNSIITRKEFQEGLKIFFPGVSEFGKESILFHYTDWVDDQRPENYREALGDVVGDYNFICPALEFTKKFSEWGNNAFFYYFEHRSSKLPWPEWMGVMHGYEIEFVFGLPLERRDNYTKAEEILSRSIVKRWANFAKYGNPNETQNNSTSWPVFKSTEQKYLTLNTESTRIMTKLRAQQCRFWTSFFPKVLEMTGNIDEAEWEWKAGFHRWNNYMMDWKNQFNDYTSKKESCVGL
Description: Inhibition of recombinant human BChE using butyrylthiocholine iodide as substrate preincubated for 15 mins followed by substrate addition by Ellman's method
A short description of data set [22]: in vitro. As to conditions: PAMPA.
Description: Permeability of compound in PBS/EtOH buffer (7:3) PAMPA-BBB assay

Sequence of Beta-secretase 1 (P56817 whole entry): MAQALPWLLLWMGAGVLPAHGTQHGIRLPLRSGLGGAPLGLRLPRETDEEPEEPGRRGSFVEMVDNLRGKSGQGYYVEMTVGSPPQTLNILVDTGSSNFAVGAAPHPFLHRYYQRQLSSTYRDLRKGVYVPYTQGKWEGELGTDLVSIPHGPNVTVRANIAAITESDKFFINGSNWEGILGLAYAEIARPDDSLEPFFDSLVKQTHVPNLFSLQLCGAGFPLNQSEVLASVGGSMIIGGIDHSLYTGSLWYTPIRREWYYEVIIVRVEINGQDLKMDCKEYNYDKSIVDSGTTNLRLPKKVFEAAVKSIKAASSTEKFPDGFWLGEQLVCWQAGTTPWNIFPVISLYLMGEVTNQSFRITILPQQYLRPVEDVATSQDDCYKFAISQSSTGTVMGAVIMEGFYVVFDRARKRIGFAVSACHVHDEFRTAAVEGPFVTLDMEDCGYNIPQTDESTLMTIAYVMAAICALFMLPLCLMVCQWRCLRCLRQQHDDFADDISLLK

In the case of `COc1cc2c(cc1OCc1ccccc1)CCC(C)(CC(=O)NCCCCCCCCNc1c3c(nc4cc(Cl)ccc14)CCCC3)O2` (configuration not stated), the IC50 (as a rule, the concentration that gives 50% inhibition) turned out to be 8310 nM in [1], 10.4 nM in [20] and 100 nM in [21]. The Activity result was “Non-Toxic” in data set [2]; “Toxic” in [3]; “Toxic” in data set [4]; “Toxic” in [5]; “Toxic” in [6]; “Non-Toxic” in data set [7]. Moreover, the outcome in [8], in [9], in [10], in data set [11], in data set [15] and in [16] was inactive. Moreover, the result in data set [17], in data set [18] and in [19] was inactive. For the same compound, the result in data set [12], in [13] and in [14] was Active. The Papp (commonly a coefficient for how fast a substance crosses the barrier) in data set [22] came out at 12.3 ×10⁻⁶ cm/s.

(Values after ChEMBL document CHEMBL4725294, “Centrally Active Multitarget Anti-Alzheimer Agents Derived from the Antioxidant Lead CR-6” (J Med Chem, 2020).)
